Source: PubChem BioAssay (NCI)
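Assay format: 96-well plates, 48-hour exposure. TGI: concentration producing complete growth inhibition.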

What was measured:
Assay in all cases: NCI tumour cell line growth inhibition, 48 h
OVCAR-3 ovarian = tested on: OVCAR-3 ovarian
HCT-15 colon = tested on: HCT-15 colon
ACHN renal = tested on: ACHN renal
LOX IMVI melanoma = tested on: LOX IMVI melanoma
NCI/ADR-RES ovarian = tested on: NCI/ADR-RES ovarian
SK-MEL-2 melanoma = tested on: SK-MEL-2 melanoma

Structure (SMILES) | TGI (OVCAR-3 ovarian) | TGI (HCT-15 colon) | TGI (ACHN renal) | TGI (LOX IMVI melanoma) | TGI (NCI/ADR-RES ovarian) | TGI (SK-MEL-2 melanoma)
CCn1c(=O)c2nc(SC)sc2n(-c2ccccc2)c1=O | > 100 µM | > 100 µM | > 100 µM | > 100 µM | > 100 µM | > 100 µM
NC(=Nc1cccc(Cl)c1)c1ccccc1N | > 100 µM | > 100 µM | > 100 µM | > 100 µM | > 100 µM | 
CSc1c(CC(=O)Nc2ccc(Cl)cc2)n(Cc2ccccc2)c2ccccc12 | > 100 µM | > 100 µM | > 100 µM | > 100 µM | > 100 µM | 51.3 µM
CCOC(=O)C(C)c1nc2ccc(C(F)(F)F)cc2[nH]c1=O (stereo not drawn) | > 100 µM | > 100 µM | > 100 µM | > 100 µM | > 100 µM | > 100 µM
CCn1c2ccccc2c2ccc(C3C(C(=O)OC)=C(C)NC(C)=C3C(=O)OC)cc21 | > 100 µM | > 100 µM | > 100 µM | > 100 µM | > 100 µM | 
COc1c2c(cc3c1C1(O)Cc4ccc5c(c4C[N+]1(C)CC3)OCO5)OCO2 (stereo not drawn) | > 100 µM | > 100 µM | > 100 µM | > 100 µM | > 100 µM | > 100 µM
CN1C(=O)CC2CCC(=O)N2c2cccnc21 (stereo not drawn) | > 100 µM | > 100 µM | > 100 µM | > 100 µM | > 100 µM | > 100 µM
COc1cc2ccc1OCc1cccc(n1)COc1ccc(cc1OC)C=NCCNCCNCCN=C2 | > 100 µM | > 100 µM | > 100 µM | > 100 µM | > 100 µM | > 100 µM
C=CCc1cc(C(Cc2ccccc2)NC(C)C)cc(OCc2ccccc2)c1OCc1ccccc1 (stereo not drawn) | 30.4 µM | 30.7 µM | 30.5 µM | 31.7 µM | 30.7 µM | 33.4 µM
O=C(NNS(=O)(=O)c1ccccc1)c1cccnc1 | > 100 µM | > 100 µM | > 100 µM | > 100 µM | > 100 µM | > 100 µM
C=CCCCCOC1C=CC(O)C(CO)O1 (stereo not drawn) | > 100 µM | > 100 µM | > 100 µM | > 100 µM | > 100 µM | > 100 µM
CC(C)/C(=N\[N+](C)(C)C)c1ccccc1 | > 100 µM | > 100 µM | > 100 µM | > 100 µM | > 100 µM | > 100 µM
CN(C)c1cccc2c1C(=O)C=CC21CCc2ccc(N(C)C)c3c(N(C)C)ccc1c23 (stereo not drawn) | 24.8 µM |  | 26.2 µM | 31.9 µM | > 100 µM | 
CC(C)(C)C1=CC(=C2C=Cc3ccccc3O2)C=C(C(C)(C)C)C1=O | 7.71 µM | 19.3 µM | 19.2 µM | 12.9 µM | 14.8 µM | 4.71 µM
O=S(=O)(O)c1ccc2c(N=Nc3ccc(Cl)cc3)c(O)ccc2c1 | > 100 µM | > 100 µM | > 100 µM | > 100 µM | > 100 µM | > 100 µM
Cc1cccc(C)c1Nc1nc(C)c(C(=O)CC(=O)C(=O)Nc2c(C(C)C)cccc2C(C)C)s1 | > 100 µM | > 100 µM | > 100 µM | > 100 µM | > 100 µM | > 100 µM

Structure (SMILES) | TGI (OVCAR-3 ovarian) | TGI (HCT-15 colon) | TGI (ACHN renal) | TGI (LOX IMVI melanoma) | TGI (NCI/ADR-RES ovarian) | TGI (SK-MEL-2 melanoma)
CSCCCNC(=O)c1csc(-c2csc(CCNC(=O)CNC(=O)CNC(=O)OC(C)(C)C)n2)n1 | > 100 µM | > 100 µM | > 100 µM | > 100 µM | > 100 µM | > 100 µM
COc1nc2c(c(=O)n1C)N=C(c1ccc(Cl)cc1)CC(c1ccccc1)N2 (stereo not drawn) | > 100 µM | 30.4 µM | 54 µM | 52.2 µM | > 100 µM | 42.9 µM
CC(C)(C)OC(=O)CN1CCN(CC(=O)N2CCN(C(=O)OCc3ccccc3)CC2)CCN(CC(=O)OC(C)(C)C)CCN(CC(=O)N2CCN(C(=O)OCc3ccccc3)CC2)CC1 | 13.1 µM | 19.1 µM | 22.3 µM | 2.93 µM | 34.4 µM | 5.54 µM
Cc1ccc2[nH]c3[nH]c(=S)[nH]c(=O)c3c2c1 | > 100 µM | > 100 µM | > 100 µM | > 100 µM | > 100 µM | > 100 µM
O=C1CSC2=NC3=C(CSC/C3=C\c3ccccc3)C(c3ccccc3)N12 (stereo not drawn) | > 100 µM | > 100 µM | > 100 µM | > 100 µM | > 100 µM | > 100 µM
CC(C)(C)OC(=O)Cn1ncn(NC(=O)Cc2ccccc2)c1=O | > 10 µM | > 10 µM | > 10 µM | > 10 µM | > 10 µM | 
O=C1CCCCC/C1=C\c1ccccc1 | > 100 µM | > 100 µM | > 100 µM | > 100 µM |  | > 100 µM
N#C/C(N)=C(\C#N)N=CNc1ccc(N)cc1 | > 100 µM | > 100 µM | > 100 µM | > 100 µM | > 100 µM | > 100 µM
COc1cc(NC=C2C(=O)OC(C)(C)OC2=O)c(OC)c(C)c1OC | > 100 µM | > 100 µM | > 100 µM | > 100 µM | > 100 µM | > 100 µM
O=C(Nc1nnc(-c2c(Cl)c(Cl)c(Cl)c(Cl)c2-c2nc3cc(C(=O)c4ccccc4)ccc3[nH]2)o1)c1ccc(Cl)cc1 | 54.1 µM | > 100 µM | > 100 µM | > 100 µM | > 100 µM | > 100 µM
Cc1c(N2C(=O)/C(=C/c3ccc(N(CCC#N)CCC#N)cc3)N=C2c2ccccc2)c(=O)n(-c2ccccc2)n1C | > 100 µM | > 100 µM |  | > 100 µM | > 100 µM | > 100 µM
COc1cccc2cc(C(C)=O)c(=O)oc12 | > 100 µM |  | > 100 µM | > 100 µM | > 100 µM | > 100 µM
Cc1ccc(O)c(C2=CC(c3cccc(Br)c3)SC(N)=N2)c1 (stereo not drawn) | > 100 µM | 32.8 µM | 52.2 µM | 34.7 µM | 71.9 µM | 39.4 µM
CCN(CC)CCCNc1[nH]ncc2c(C)c3nc4ccc(OC)cc4c3cc12 | 2.99 µM | 36.3 µM | 5.95 µM | 0.829 µM | > 100 µM | 3.01 µM
CCCC1(CCC)c2cc(/C=N\O)ccc2-c2ccc(-c3ccc(C(C)(C)C)cc3)cc21 | 55 µM | > 100 µM | > 100 µM | > 100 µM | > 100 µM | 99.3 µM
